According to publication PMC6512342 (Biochemical pharmacology, 2018):
Several values for one entry are separate records, joined by “and”; a condition that tells them apart may be missing. Equal values may be shown once.

What was measured:
CYP2D6 = conditions: read-out: KM for BMAMC; CYP2D6-containing bacterial membranes; cited from earlier work
human CYP2D6 = human CYP2D6 (Homo sapiens, UniProt P10635); assay: Substrate-induced spin shift titration, purified CYP2D6 in solution; format: binding; conditions: for maximal amplitude of the spin shift: purified CYP2D6 in solution
[1] = biological target: T1, human CYP2D6 (CYP2D6-incorporated proteoliposomes) (Homo sapiens, UniProt P10635); assay: Substrate-induced spin shift titration, CYP2D6-PLS; format: binding; conditions: for Kd: dissociation constant (KD), spin shift titration
[2] = biological target: T1, human CYP2D6 (CYP2D6-incorporated proteoliposomes); assay: Spectroscopic study of MDMA-dependent MIC formation in CYP2D6-PLS; format: biochemical
[3] = biological target: T2, CYP2D6 (CYP2D6 Supersomes) (Homo sapiens, UniProt P10635); assay: Spectroscopic study of MDMA-dependent MIC formation in CYP2D6-SS; format: biochemical; conditions: 100 μM MDMA, exponential fit
[4] = biological target: T1, human CYP2D6 (CYP2D6-incorporated proteoliposomes); assay: MDMA utilization and DHMA formation in CYP2D6-PLS; format: in vitro ADME
[5] = healthy volunteers, recreational dose 100–150 mg; cited from earlier work
[6] = biological target: T1, human CYP2D6 (CYP2D6-incorporated proteoliposomes); assay: MDMA-dependent time-dependent inhibition
[7] = biological target: T2, CYP2D6 (CYP2D6 Supersomes); assay: MDMA-dependent TDI in CYP2D6-SS with BMAMC as probe substrate; conditions: 100 μM MDMA, exponential fit
[8] = MDMA liver-to-blood ratio and liver concentration; conditions: estimated from plasma peak and liver-to-blood ratio
CYP3A4 = conditions: cited from earlier work
[9] = substrate: CCCCNCc1cc(=O)oc2cc(OC)ccc12; assay: Fluorometric determination of CYP2D6 activity with BMAMC in CYP2D6-SS; format: biochemical, human; conditions: other: CYP2D6-SS, 30 °C
[10] = CYP2D6-PLS, 100 μM MDMA, exponential fit
[11] = kinetic model fit, kinetics of MIC formation
[12] = kinetic model fit, kinetics of DHMA production

For CCCCNCc1cc(=O)oc2cc(OC)ccc12 [BMAMC, N-butyl 7-methoxy-4-(aminomethyl)-coumarin], the Km (CYP2D6) is given as 1.5 µM.

In the case of COc1ccc2c(c1)[C@]13CCCC[C@@H]1[C@H](C2)N(C)CC3 [DXM, Dextromethorphan], the Kd (human CYP2D6) is reported as 45.7 ± 3.1 µM, the “maximal amplitude of the spin shift” value (human CYP2D6) is reported as 11.9±1.8% and the “maximal amplitude of the spin shift (Amax)” value [1] is reported as 25% and 24.7±0.4%. The Kd [1] was 52 µM and 53.2 µM.

In the case of CNC(C)Cc1ccc2c(c1)OCO2 (stereo not drawn) [MDMA, 3,4-methylenedioxymethamphetamine], the Kd (human CYP2D6) is reported as 21.8 ± 7.7 µM, the “maximal amplitude of the spin shift” value (human CYP2D6) is reported as 6.0± 1.5% and the “maximal amplitude of the spin shift (Amax)” value [1] is reported as 8.1% and 10.9±5.5%. For the same molecule, the Kd [1] was 24 µM and 27.9 µM, the “Amax (MIC)” value [2, 10] was 37% and the “Kobs (MIC)” value [2, 10] was 0.085 min⁻¹. For the same molecule, the “maximal amplitude of MIC formation” value ([2]; CYP2D6-PLS, saturating MDMA) was 45 ± 3 % of the total P450 content, the Kd ([2]; kD, kinetic model fit, kinetics of MIC formation, k2/k1 with k1 fixed) was 55.5 µM and the k3 [2, 11] was 1.7 min⁻¹. For the same molecule, the k4 [2, 11] was 0.167 min⁻¹, the k5 [2, 11] was 0.027 min⁻¹ and the Finact ([2]; kinetic model fit, kinetics of MIC formation, CYP2D6-PLS) was 0.423 and 0.42. For the same molecule, the “Amax (MIC)” value [3] was 49%, the “Kobs (MIC)” value [3] was 0.19 min⁻¹ and the Kd [4] was 49.5 µM. The “MDMA concentration after incubation” value ([4]; CYP2D6-PLS with NADPH, 1 hour, initial 5 μM MDMA) was 1.5 µM, the “decrease in MDMA concentration” value ([4]; CYP2D6-PLS with NADPH, 1 hour, initial 100 μM MDMA) was ≤ 30 % of the initial concentration and the k3 [4, 12] was 3.9 min⁻¹. It also gave a k4 [4, 12] of 0.14 min⁻¹, a k5 [4, 12] of 0.047 min⁻¹ and a k6 ([4]; kinetic model fit, kinetics of DHMA production, MDMA-independent inactivation) of 0.041 min⁻¹. For the same molecule, the Finact ([4]; kinetic model fit, kinetics of DHMA production, value fixed from MIC analysis) was 0.42, the “peak concentration in blood plasma” value [5] was 1 pM and the Kd [6] was 23.9 µM. The “reversibility of inactivation of CYP2D6” value ([6]; CYP2D6-PLS) was “reversible”, the “Kobs (TDI)” value [6, 10] was 0.15 min⁻¹ and the “maximal depth of TDI at enzyme saturation with MDMA” value ([6]; CYP2D6-PLS, DXM as probe substrate, Michaelis-Menten fit) was 80±8%. The “relative amplitude of TDI at MDMA saturation” value ([6]; CYP2D6-PLS, rate of BMAMC metabolism) was “over 80%”, the k3 ([6]; kinetic model fit, TDI) was 3.2 min⁻¹ and the k4 ([6]; kinetic model fit, TDI) was 0.085 min⁻¹. It also gave a k5 ([6]; kinetic model fit, TDI) of 0.033 min⁻¹, a k6 ([6]; kinetic model fit, TDI, MDMA-independent inactivation) of 0.005 min⁻¹ and a Finact ([6]; kinetic model fit, TDI, value fixed from MIC analysis) of 0.42. The “Kobs (TDI)” value [7] was 0.28 min⁻¹ and the “physiological concentration of MDMA in human liver” value [8] was at most 10 pM.

In the case of COc1cc([C@@H]2c3cc4c(cc3[C@H](O)[C@H]3COC(=O)[C@H]23)OCO4)cc(OC)c1OC [podophylotoxin], the “reversibility of the Fe2+:carbene complex (MIC)” value (CYP3A4) is listed as “virtually irreversible”.

B1: CYP2D6 (CYP2D6 Supersomes) (Homo sapiens) (protein)
chain: MGLEALVPLAVIVAIFLLLVDLMHRRQRWAARYPPGPLPLPGLGNLLHVDFQNTPYCFDQLRRRFGDVFSLQLAWTPVVVLNGLAAVREALVTHGEDTADRPPVPITQILGFGPRSQGVFLARYGPAWREQRRFSVSTLRNLGLGKKSLEQWVTEEAACLCAAFANHSGRPFRPNGLLDKAVSNVIASLTCGRRFEYDDPRFLRLLDLAQEGLKEESGFLREVLNAVPVLLHIPALAGKVLRFQKAFLTQLDELLTEHRMTWDPAQPPRDLTEAFLAEMEKAKGNPESSFNDENLRIVVADLFSAGMVTTSTTLAWGLLLMILHPDVQRRVQQEIDDVIGQVRRPEMGDQAHMPYTTAVIHEVQRFGDIVPLGVTHMTSRDIEVQGFRIPKGTTLITNLSSVLKDEAVWEKPFRFHPEHFLDAQGHFVKPEAFLPFSAGRRACLGEPLARMELFLFFTSLLQHFSFSVPTGQPRPSHHGVFAFLVSPSPYELCAVPR
B1 gave a Km [9] of 3.5 µM.
